Starred links: 1 amine or outer side, 2 acyl side, 3 side chain; linkers in the order of their positions; H or OH if unused. Non-standard residues stand in square brackets, D forms with d. Residues, ends and D or L forms follow the SMILES beside them. X1 = CCC[C@@H](N[*:1])[C@H](C)C(=O)[*:2]; Met(O2) = CS(=O)(=O)CC[C@H](N)C(=O)O; dNMeF = CN[C@H](Cc1ccccc1)C(=O)O; NMeL = CN[C@@H](CC(C)C)C(=O)O; dHiv = CC(C)[C@@H](O)C(=O)O
What was measured:
HEK293 [1] = assay: Cytotoxicity against HEK293 cells after 48 hrs by resazurin conversion-based fluorometric assay; format: cell-based; conditions: Homo sapiens, HEK293, 48 h
HEK293 [2] = assay: Cytotoxicity against HEK293 cells at 400 nM after 48 hrs by resazurin conversion-based fluorometric assay; format: cell-based; conditions: human, hek293, 48 h, 0.4 µM
Spodoptera exigua = assay: Antilepidopteran activity against beet armyworm neonates assessed as mortality rate at 1.0 mg/ml after 5 days; format: functional

## CCC[C@H]1NC(=O)[C@H](C)NC(=O)[C@H](CC(C)C)N(C)C(=O)[C@H](Cc2ccccc2)NC(=O)[C@H](CCS(C)(=O)=O)NC(=O)[C@@H](Cc2ccccc2)N(C)C(=O)[C@@H](C(C)C)OC(=O)[C@H]1C [CARRIEBOWMIDE SULFONE] (cyclo(A[X1][dHiv][dNMeF][Met(O2)]F[NMeL]))
HEK293 [1]
  IC50: > 50 µM

## COc1cccc2c1C(=O)c1c(O)c3c(c(O)c1C2=O)C[C@@](O)(C(C)=O)C[C@@H]3O[C@H]1C[C@H](N)[C@H](O)[C@H](C)O1 [DAUNORUBICIN]
HEK293 [2]
  Activity: 82%

## C[C@@H]1C(=O)O[C@@H](C(C)(C)O)c2nc(cs2)C(=O)OC(C)(C)[C@H](O)c2nc(cs2)C(=O)O[C@H]1CCCC(C)(Cl)Cl [DEACETYLHECTOCHLORIN]
HEK293 [1]
  IC50: 6 µM

## C=CCCC(C)C(=O)C(C)CC(C)NC(=O)CCC/C(=C/Cl)CCC (stereo not drawn) [GRENADAMIDE B]
HEK293 [1]
  IC50: ≥ 100 µM
Spodoptera exigua
  Activity: 38%

## CCC/C(=C\Cl)CCCC(=O)NC(C)CC(C)C(=O)C(C)CC/C=C/Cl (stereo not drawn) [GRENADAMIDE]
HEK293 [1]
  IC50: ≥ 100 µM
Spodoptera exigua
  Activity: 50%

## CC(CC(=O)N(C)[C@@H]1C(=O)N(C)[C@@H](C(C)C)C(=O)N[C@H](C)C(=O)N(C)[C@@H](C)C(=O)N(C)[C@H](Cc2ccccc2)C(=O)N[C@@H](C)C(=O)O[C@@H]1C)C(Cl)Cl (stereo partly drawn) [ITRALAMIDE A]
HEK293 [1]
  IC50: 54 µM
